Laboratory results: patent publication US11981618B2, “P62 ligand compound, and composition for preventing, ameliorating or treating proteinopathies comprising the same” (AUTOTAC INC., priority 2018, dated 2024)
“Also recorded” adds a separate entry of the source.

How the values were obtained:
LC3 = test: Autophagy activity in cultured cells by immunoblotting using LC3 as a marker; assay type: cell-based, human; conditions: HeLa; for autophagy activity (level of LC3), control compounds: different concentrations and different times, FIG. 5
Method: In order to evaluate the autophagy activity efficacy by the compounds (Examples 1-19), HeLa cell line, which is a cell line derived from a cervical cancer patient, was cultured using a DMEM medium containing 10% FBS and 1% streptomycin/penicillin in an incubator with 5% carbon dioxide. As representative compounds among the present compounds, YOK-1107, YOK-4404 and YOK-1104 were selected. In order to measure autophagy activity according to the treatment with these selected representative compounds, the respective cells were dispensed into 6 well plates. Additional cultures were performed […] so that the cells were completely attached to the surface of the plate. To find the concentration at which the respective compounds could increase the phenomenon of autophagy, the test compounds were diluted at 1, 2, 5, 10 and 20 μM and treated. After treatment with the respective compounds, the cells were cultured again in a cell incubator for 24 hours, and then the cells were collected. To extract proteins from the collected cells, 100 ul of lysis buffer (20 mM Tris (pH 7.4), 150 mM NaCl, 1% Triton X-100, 2 mM NaF, 2 mM EDTA, 2 mM beta-glycerophosphate, 5 mM sodium orthovanadate, 1 mM PMSF, leupeptin, aprotinin) was injected into each sample, and cells were lysed. Based on the measured total protein concentration, a sample buffer was added to each sample and allowed to react at 100° C. for 5 minutes. 5 ul was taken from the samples after the reaction, and dispensed into each well of acrylamide gel, and then immunoblotting was performed.
In order to investigate the autophagy activity efficacy by the compounds (Examples 1-19), immunoblotting was performed in the same manner as in Experimental Example 2 using LC3 as a marker. As for the difference, in order to evaluate the treatment time required for activation and the activity retention time, as the representative compounds selected among the present compounds, 5 μM of YOK-1107, YOK-1204, YOK-1304, YOK-2204, YOK-3304, […] treated for 1, 3, 6, 12, 24, 48 hours. On the other hand, as the representative compounds selected among the compounds of the present invention, […] YOK-1107, YOK-1109, YOK-2207, YOK-2209, YT-4-1, YT-4-2, YT-6-1, YT-6-2, YT-6-8, YT-6-7, YT-9-1, YT-9-2 were treated for 24 hours.
In order to investigate the autophagy activity efficacy of control compounds, immunoblotting was performed in the same manner as in Experimental Example 2 by using LC3 as a marker. As the control compounds, compounds having the following structure were used.

p62 protein = target: T1, p62 protein (Homo sapiens, UniProt Q13501); test: Oligomerization activity of p62 protein in cultured cells by immunoblotting; assay type: cell-based; conditions: HEK293 cell lysate treated with test compounds at room temperature for 2 hours; immunoblot, FIG. 2
T1 construct: endogenous in cells; host or cells: HEK293 (cell lysate treated with compounds)
Text: In order to evaluate the p62 protein oligomerization activity efficacy by the compounds (Examples 1-19), HEK293 cell line, which is human embryonic kidney-derived cell, was collected. As representative compounds among the present compounds, YOK-1104, YOK-2204, YOK-3304, YOK-1204, YOK-4404, YOK-1107, YOK-1109, YOK-2207, YOK-2209, YT-4-1, YT-4-2, YT-6-1, YT-6-2, YT-6-7, YT-6-8, YT-9-1, YT-9-2 were selected. In order to measure intracellular p62 protein activation and oligomerization according to the treatment with these selected representative compounds, the respective cells were dispensed into a pi dish. The cells were collected after further culturing for 24 hours so that the cells were completely attached to the surface of the plate. 100 ul of lysis buffer (20 mM Tris, pH 7.4), 150 mM NaCl, 1% Triton X-100, 2 mM NaF, 2 mM EDTA, 2 mM beta-glycerophosphate, 5 mM sodium orthovanadate, 1 mM PMSF, leupeptin, aprotinin) were injected into each sample and the cells were lysed. Based on the measured total protein concentration, each sample was treated with test compounds at room temperature for 2 hours, and then a sample buffer was added and allowed to react at 95° C. for 10 minutes. 25 ul was taken from the samples after the reaction, and dispensed into each well of acrylamide gel, and then immunoblotting was performed.

[1] = 1, 2, 5, 10 and 20 μM, 24 hours, FIG. 3
[2] = 5 μM, treated for 1, 3, 6, 12, 24, 48 hours, FIG. 4
[3] = treated for 24 hours (concentration not given), FIG. 4

T1 sequence (Q13501 whole entry): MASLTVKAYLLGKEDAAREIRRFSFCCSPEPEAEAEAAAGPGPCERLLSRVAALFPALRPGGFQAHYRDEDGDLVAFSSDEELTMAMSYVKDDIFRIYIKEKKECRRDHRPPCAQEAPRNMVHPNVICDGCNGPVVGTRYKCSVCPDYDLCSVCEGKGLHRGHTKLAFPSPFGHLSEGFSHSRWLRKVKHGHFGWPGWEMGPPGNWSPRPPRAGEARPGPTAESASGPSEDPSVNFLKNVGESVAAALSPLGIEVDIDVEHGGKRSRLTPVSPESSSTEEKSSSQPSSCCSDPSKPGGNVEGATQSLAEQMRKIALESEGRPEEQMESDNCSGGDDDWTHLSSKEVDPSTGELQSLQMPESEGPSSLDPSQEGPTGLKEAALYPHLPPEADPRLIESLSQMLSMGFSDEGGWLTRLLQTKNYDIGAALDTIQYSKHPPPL

Compound | autophagy activity (level of LC3), control compounds (LC3) | p62 protein oligomerization activity (p62 monomer, oligomers and high-molecular aggregates) (p62 protein) | autophagy activity (level of LC3) (LC3; [3]) | also measured
O=Cc1ccc(OCc2ccccc2)c(OCc2ccccc2)c1 [Example 1101, 3,4-bis(benzyloxy)benzaldehyde, reference compound] | do not increase autophagy activity | – | – | –
Oc1ccc(OCc2ccccc2)c(OCc2ccccc2)c1 [Example 1102, 3,4-bis(benzyloxy)phenol, reference compound] | do not increase autophagy activity | – | – | –
c1ccc(COc2ccc(OC[C@H]3CO3)cc2OCc2ccccc2)cc1 [Example 1103, (R)-2-((3,4-bis(benzyloxy)phenoxy)methyl)oxirane, reference compound] | do not increase autophagy activity | – | – | –
O=Cc1ccc(OCc2ccccc2)c(OCCc2ccccc2)c1 [Example 1201, 4-(benzyloxy)-3-phenethoxybenzaldehyde, reference compound] | do not increase autophagy activity | – | – | –
Oc1ccc(OCc2ccccc2)c(OCCc2ccccc2)c1 [Example 1202, 4-(benzyloxy)-3-phenethoxyphenol, reference compound] | do not increase autophagy activity | – | – | –
c1ccc(CCOc2cc(OC[C@H]3CO3)ccc2OCc2ccccc2)cc1 [Example 1203, (R)-2-((4-(benzyloxy)-3-phenethoxyphenoxy)methyl)oxirane, reference compound] | do not increase autophagy activity | – | – | –
O=Cc1ccc(OCc2ccccc2)c(OCCCc2ccccc2)c1 [Example 1301, 4-(benzyloxy)-3-(3-phenylpropoxy)benzaldehyde, reference compound] | do not increase autophagy activity | – | – | –
Oc1ccc(OCc2ccccc2)c(OCCCc2ccccc2)c1 [Example 1302, 4-(benzyloxy)-3-(3-phenylpropoxy)phenol, reference compound] | do not increase autophagy activity | – | – | –
O=Cc1ccc(OCc2ccccc2)c(OCCCCc2ccccc2)c1 [Example 1401, 4-(benzyloxy)-3-(4-phenylbutoxy)benzaldehyde, reference compound] | do not increase autophagy activity | – | – | –
Oc1ccc(OCc2ccccc2)c(OCCCCc2ccccc2)c1 [Example 1402, 4-(benzyloxy)-3-(4-phenylbutoxy)phenol, reference compound] | do not increase autophagy activity | – | – | –
O=Cc1ccc(OCCc2ccccc2)c(OCCc2ccccc2)c1 [Example 2201, 3,4-diphenethoxybenzaldehyde, reference compound] | do not increase autophagy activity | – | – | –
Oc1ccc(OCCc2ccccc2)c(OCCc2ccccc2)c1 [Example 2202, 3,4-diphenethoxyphenol, reference compound] | do not increase autophagy activity | – | – | –
O=Cc1ccc(OCCCc2ccccc2)c(OCCCc2ccccc2)c1 [Example 3301, 3,4-bis(3-phenylpropoxy)benzaldehyde] | – | – | – | autophagy activity (level of LC3) (LC3; [1]): increasing the autophagy activity
Oc1ccc(OCCCCc2ccccc2)c(OCCCCc2ccccc2)c1 [Example 4402, 3,4-bis(4-phenylbutoxy)phenol, reference compound] | do not increase autophagy activity | – | – | –
CC(C)NC[C@@H](O)COc1ccc(OCc2ccccc2)c(OCc2ccccc2)c1 [YOK-1104, (R)-1-(3,4-bis(benzyloxy)phenoxy)-3-(isopropylamino)propan-2-ol] | – | increasing the p62 protein oligomerization activity | – | autophagy activity (level of LC3) (LC3; [1]): increasing the autophagy activity
N=C(N)NC[C@@H](O)COc1ccc(OCc2ccccc2)c(OCc2ccccc2)c1 [YOK-1107, (R)-1-(3-(3,4-bis(benzyloxy)phenoxy)-2-hydroxypropyl)guanidine] | – | increasing the p62 protein oligomerization activity | gradually increased | autophagy activity (level of LC3) (LC3; [2]): gradually increased; also recorded: increasing the autophagy activity; autophagy activity (level of LC3) (LC3; [1]): increasing the autophagy activity
N=C(N)NCCNC[C@@H](O)COc1ccc(OCc2ccccc2)c(OCc2ccccc2)c1 [YOK-1109, (R)-1-(2-((3-(3,4-bis(benzyloxy)phenoxy)-2-hydroxypropyl)amino)ethyl)guanidine] | – | increasing the p62 protein oligomerization activity | gradually increased | –
CC(C)NC[C@@H](O)COc1ccc(OCc2ccccc2)c(OCCCc2ccccc2)c1 [YOK-1304, (R)-1-(4-(benzyloxy)-3-(3-phenylpropoxy)phenoxy)-3-(isopropylamino)propan-2-ol] | – | – | – | autophagy activity (level of LC3) (LC3; [2]): gradually increased; also recorded: increasing the autophagy activity
N=C(N)NC[C@@H](O)COc1ccc(OCCc2ccccc2)c(OCCc2ccccc2)c1 [YOK-2207, (R)-1-(3-(3,4-diphenethoxyphenoxy)-2-hydroxypropyl)guanidine] | – | increasing the p62 protein oligomerization activity | gradually increased | –
N=C(N)NCCNC[C@@H](O)COc1ccc(OCCc2ccccc2)c(OCCc2ccccc2)c1 [YOK-2209, (R)-1-(2-((3-(3,4-diphenethoxyphenoxy)-2-hydroxypropyl)amino)ethyl)guanidine] | – | increasing the p62 protein oligomerization activity | gradually increased | –
CC(C)NC[C@@H](O)COc1ccc(OCc2ccc(Cl)cc2)c(OCc2ccc(Cl)cc2)c1 [YT-4-1, (R)-1-(3,4-bis((4-chlorobenzyl)oxy)phenoxy)-3-(isopropylamino)propan-2-ol] | – | increasing the p62 protein oligomerization activity | gradually increased | –
CC(C)NC[C@@H](O)COc1ccc(OCc2ccc(F)cc2)c(OCc2ccc(F)cc2)c1 [YT-4-2, (R)-1-(3,4-bis((4-fluorobenzyl)oxy)phenoxy)-3-(isopropylamino)propan-2-ol] | – | increasing the p62 protein oligomerization activity | gradually increased | –
OCCNC[C@@H](O)COc1ccc(OCc2ccc(Cl)cc2)c(OCc2ccc(Cl)cc2)c1 [YT-6-1] | – | increasing the p62 protein oligomerization activity | gradually increased | –
OCCNC[C@@H](O)COc1ccc(OCc2ccc(F)cc2)c(OCc2ccc(F)cc2)c1 [YT-6-2] | – | increasing the p62 protein oligomerization activity | gradually increased | –
OCCNC[C@@H](O)COc1cccc(OCc2ccc(Cl)cc2)c1 [YT-6-7, (R)-1-(3-((4-chlorobenzyl)oxy)phenoxy)-3-((2-hydroxyethyl)amino)propan-2-ol] | – | increasing the p62 protein oligomerization activity | gradually increased | –
